Measurements: article PMC3517777, “Phase I study of TP300 in patients with advanced solid tumors with pharmacokinetic, pharmacogenetic and pharmacodynamic analyses” (BMC Cancer, 2012)

Legend:
neutrophil count = experiment: Exposure versus fall in nadir neutrophil count, sigmoid Emax model; format: in vivo, human; details: 1-nadir/pre-observation neutrophils in cycle 1 vs total AUC of TP3076 plus TP3011, sigmoid Emax fit
Method: Pharmacokinetic parameters derived from plasma concentration-time data of TP3076 or TP3011 by non-compartmental methods using WinNonlin (version 5.1; Pharsight Corp), included maximal plasma concentration (Cmax) and time of Cmax (Tmax), apparent plasma elimination half-life (t1/2), and the area under the curve (AUC). The urinary excretion ratio (fe) of TP3076 and TP3011 was calculated from the urinary concentration and volume up to 48 hours after administration, and the administration dose. The linearity of Cmax and AUC was determined with linear regression, analysis of variance and power model analysis. The sum of the AUCs of TP3076 and TP3011 was plotted against percentage (%) fall in nadir neutrophil count to explore the relationship between exposure and myelosuppression as a measure of anti-proliferative effect and a sigmoid Emax model fitted to the data:
where γ is the Hill equation constant and EAUC50 is the AUC associated with 50% of the maximal effect.

[1] = Single and repeat dose toxicity studies (preclinical); format: in vivo; details: most sensitive of the two species tested; equals 6 mg/m^2
Method: The starting dose of 1 mg/m^2 was derived from single and repeat dose toxicity studies and represented one sixth of 0.3 mg/kg (6 mg/m^2), a dose tolerated without evidence of serious, irreversible or life-threatening toxicity in the most sensitive of the two species tested. Doses were doubled in subsequent cohorts until grade ≥2 toxicity was observed, whereupon a modified Fibonacci dose escalation scheme was used. In each cohort the first patient was required to complete 1 cycle before subsequent patients were entered. Intra-patient dose-escalation was not allowed.

[2] = tested on: tumours over-expressing the breast cancer resistance protein [BCRP]; set-up: method as in PMID 19495753; details: unlike SN38; cited from earlier work

CCCCCN1C=Nc2cccc3nc4c(c1c23)Cn1c-4cc2c(c1=O)COC(=O)[C@@]2(CC)OC(=O)CN(C)C(=O)CN [TP300, glycine,glycyl-N-methyl-,(9S)-9-ethyl-9,10,13,15-tetrahydro-10,13-dioxo-1-pentyl-1H,12H-pyrano[3'',4'':6′,7′]indolizino[2′,1′:5,6]pyrido[4,3,2-de]quinazolin-9-yl ester, hydro-chloride]
EAUC50 (AUC associated with 50% of the maximal effect) (neutrophil count): 1.31 | γ (Hill equation constant) (neutrophil count): 0.862 | dose tolerated without evidence of serious, irreversible or life-threatening toxicity [1]: 0.3 mg/kg | activity in tumours over-expressing BCRP [2]: appears active
